The structures appear in SMILES notation.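 In this assay, cells in 96-well plates receive the compound at five concentrations for 48 hours. Endpoints are linearly interpolated between the surrounding concentrations. GI50 marks 50% less growth. TGI: concentration producing complete growth inhibition.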 Some results are limits rather than exact numbers.

This passage reports TGI and GI50 results from PubChem BioAssay (NCI).

Some test systems named below: SK-MEL-5 melanoma; SNB-19 CNS; HCT-116 colon; KM12 colon; SN12C renal; UACC-62 melanoma; 786-0 renal; HCC-2998 colon; U251 CNS; SNB-75 CNS.
What all share (assay): NCI tumour cell line growth inhibition, 48 h

With `O=C1OC(=O)C2C3CCC(O3)C12` (configuration not stated), the TGI in the experiment with SK-MEL-5 melanoma, in the experiment on SNB-19 CNS, in the experiment with HCT-116 colon, in the experiment on KM12 colon, with SN12C renal and in the experiment on UACC-62 melanoma was over 100 µM each time. Moreover, the TGI in the experiment on 786-0 renal, with HCC-2998 colon and with U251 CNS was over 100 µM in each case.

Consider `O=C=Nc1ccc(Cc2ccc(N=C=O)cc2)cc1` (tested in a mixture with another compound), for which the GI50 in the experiment on SK-MEL-5 melanoma, in the experiment with SNB-19 CNS, in the experiment with HCT-116 colon, in the experiment on SNB-75 CNS, in the experiment on KM12 colon and in the experiment with SN12C renal was over 25 µg/mL each time. Besides, the GI50 with UACC-62 melanoma, in the experiment on 786-0 renal and in the experiment on U251 CNS was over 25 µg/mL throughout. In addition, the TGI in the experiment with SK-MEL-5 melanoma, with SNB-19 CNS, in the experiment with HCT-116 colon, in the experiment with SNB-75 CNS, in the experiment with KM12 colon and in the experiment on SN12C renal was over 25 µg/mL throughout. Further, the TGI with UACC-62 melanoma, with 786-0 renal and with U251 CNS was over 25 µg/mL throughout.

For `C#C[C@]1(O)CC[C@H]2[C@@H]3CC=C4c5nc(Nc6ccc(OC)cc6OC)sc5CC[C@]4(C)[C@H]3CC[C@@]21C`, the GI50 was 1.73 µM in the experiment on SK-MEL-5 melanoma; 1.75 µM with SNB-19 CNS; 1.21 µM in the experiment with HCT-116 colon; 2.07 µM in the experiment with KM12 colon; 3.36 µM in the experiment on SN12C renal; 1.76 µM with UACC-62 melanoma. In addition, the GI50 in the experiment with 786-0 renal was 0.504 µM; in the experiment with HCC-2998 colon, 2.17 µM; in the experiment with U251 CNS, 0.77 µM. In addition, the TGI with SK-MEL-5 melanoma was 3.26 µM; in the experiment on SNB-19 CNS, 10.7 µM; in the experiment on HCT-116 colon it was 2.7 µM; in the experiment on KM12 colon, 5.57 µM; in the experiment on SN12C renal, 19.2 µM; in the experiment with UACC-62 melanoma it was 5.04 µM. The TGI is 2.6 µM in the experiment on 786-0 renal, 5.59 µM in the experiment on HCC-2998 colon and 4.09 µM in the experiment on U251 CNS.

Consider `NC(=O)c1c(OCc2c(F)cc(Br)cc2F)nsc1NC(=O)NCCCCN1CCCC1`, for which the GI50 was 1.56 µM with SK-MEL-5 melanoma; 2.27 µM in the experiment on SNB-19 CNS; 2.22 µM in the experiment with HCT-116 colon; 2.73 µM in the experiment on KM12 colon; 1.08 µM in the experiment with SN12C renal; 1.82 µM in the experiment with UACC-62 melanoma. In addition, the GI50 in the experiment with 786-0 renal was 1.43 µM; in the experiment with HCC-2998 colon it was 5.26 µM; with U251 CNS, 1.71 µM. Also, the TGI in the experiment with SK-MEL-5 melanoma was 2.96 µM; in the experiment with SNB-19 CNS, over 10 µM; in the experiment on HCT-116 colon, 8.41 µM; in the experiment on KM12 colon, over 10 µM; in the experiment on SN12C renal it was 8.28 µM; in the experiment with UACC-62 melanoma, 3.93 µM. In addition, the TGI in the experiment with 786-0 renal was 4.42 µM; with HCC-2998 colon, over 10 µM; in the experiment on U251 CNS it was 5.51 µM.

For `N#Cc1c(NC(=O)CCC(=O)O)ccc2ccccc12`, the TGI in the experiment with SK-MEL-5 melanoma, in the experiment on SNB-19 CNS, in the experiment with HCT-116 colon, in the experiment with SNB-75 CNS, in the experiment with KM12 colon and with SN12C renal was over 100 µM in each case. The TGI in the experiment on UACC-62 melanoma, with 786-0 renal and in the experiment with U251 CNS was over 100 µM throughout.

With `Cc1ccc(NC(=O)SCCC(=O)O)cc1NC(=O)SCCC(=O)O`, the TGI with SNB-19 CNS, in the experiment with HCT-116 colon, in the experiment on KM12 colon, with SN12C renal, with 786-0 renal and in the experiment on HCC-2998 colon was over 100 µM in each case. The TGI with U251 CNS is over 100 µM.

As for `COC(=O)/C(=C/N1CCN(C(=O)c2ccco2)C1=S)C(C)=O`, the GI50 was 5.26 µM in the experiment with SK-MEL-5 melanoma; 41.7 µM with SNB-19 CNS; 7.42 µM in the experiment on HCT-116 colon; 21 µM in the experiment on SNB-75 CNS; 3.04 µM with KM12 colon; 5.93 µM in the experiment on SN12C renal. Besides, the GI50 in the experiment with UACC-62 melanoma is 11.5 µM; in the experiment on 786-0 renal, 11.2 µM; in the experiment on U251 CNS, 5.53 µM. In addition, the TGI with SK-MEL-5 melanoma was 17.4 µM; in the experiment on SNB-19 CNS, 94.8 µM; in the experiment with HCT-116 colon, 24.2 µM; in the experiment with SNB-75 CNS, over 100 µM; in the experiment with KM12 colon it was 9.78 µM; in the experiment on SN12C renal, 22.4 µM. In addition, the results for the TGI in the experiment with UACC-62 melanoma, in the experiment with 786-0 renal and in the experiment with U251 CNS were 28.3 µM, 27.7 µM and 23.1 µM, respectively.

For `O=C(c1cccs1)c1c(C(F)(F)F)n([O-])c2cc(F)c(F)cc2[n+]1=O`, the GI50 in the experiment with SK-MEL-5 melanoma was 1.9 µM; in the experiment on SNB-19 CNS, 6.01 µM; in the experiment with HCT-116 colon, 1.82 µM; with KM12 colon it was 4.95 µM; in the experiment with SN12C renal, 1.38 µM; in the experiment with UACC-62 melanoma, 1.54 µM. Moreover, the figures for the GI50 in the experiment on 786-0 renal, with HCC-2998 colon and with U251 CNS were 4.44 µM, 6.65 µM and 1.02 µM, respectively. The TGI with SK-MEL-5 melanoma amounted to 4.44 µM; in the experiment with SNB-19 CNS it was 8.76 µM; with HCT-116 colon it was 8.01 µM; in the experiment with KM12 colon, 8.73 µM; in the experiment with SN12C renal it was 3.59 µM; in the experiment on UACC-62 melanoma it was 3.58 µM. In addition, the TGI in the experiment with 786-0 renal was found to be 8.75 µM; in the experiment on HCC-2998 colon, 9.07 µM; in the experiment with U251 CNS it was 2.72 µM.

Take `CCCCCN(CCCCC)C(=O)[C@@H](CCC(=O)OCc1ccccc1)NC(=O)c1cc2ccccc2[nH]1`: the TGI with SNB-19 CNS, in the experiment on HCT-116 colon, in the experiment on SNB-75 CNS, with KM12 colon, in the experiment on SN12C renal and in the experiment with UACC-62 melanoma was over 100 µM in each case. Further, the TGI with 786-0 renal, with HCC-2998 colon and with U251 CNS was over 100 µM each time.

In the case of `NC(C(=O)O)C(N)C(=O)O` (configuration not stated), the TGI in the experiment with SK-MEL-5 melanoma, with SNB-19 CNS, in the experiment on HCT-116 colon, with KM12 colon, in the experiment with SN12C renal and in the experiment on UACC-62 melanoma was over 100 µM throughout. For the same compound, the TGI with 786-0 renal and in the experiment on U251 CNS was over 100 µM in each case.
